Laboratory results reported in PubChem BioAssay (NCI).
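48-hour exposure; five concentrations; linearly interpolated endpoints. GI50 is the concentration that inhibits growth by half. At the TGI there is no net growth.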

Tests used:
Experiment in all cases: inhibition of tumour cell growth, NCI panel, 48 h
HT29 colon = test system: HT29 colon
DLD-1 colon = test system: DLD-1 colon
SN12C renal = test system: SN12C renal
MDA-N = test system: MDA-N
BT-549 breast = test system: BT-549 breast
T-47D breast = test system: T-47D breast
MDA-MB-231 breast = test system: MDA-MB-231 breast
MDA-MB-435 = test system: MDA-MB-435
HS 578T breast = test system: HS 578T breast
DU-145 prostate = test system: DU-145 prostate
XF 498 CNS = test system: XF 498 CNS

Row | SMILES | TGI (HT29 colon) [µM] | TGI (DLD-1 colon) [µM] | TGI (SN12C renal) [µM] | TGI (MDA-N) [µM] | TGI (BT-549 breast) [µM] | TGI (T-47D breast) [µM] | TGI (MDA-MB-231 breast) [µM] | TGI (MDA-MB-435) [µM] | TGI (HS 578T breast) [µM] | TGI (DU-145 prostate) [µM] | TGI (XF 498 CNS) [µM] | GI50 (BT-549 breast) [µM] | GI50 (HT29 colon) [µM] | GI50 (SN12C renal) [µM] | GI50 (MDA-MB-231 breast) [µM] | GI50 (MDA-MB-435) [µM] | GI50 (HS 578T breast) [µM] | GI50 (DU-145 prostate) [µM] | GI50 (T-47D breast) [µM]
1 | COc1ccc(/C(Cl)=C(\C=O)c2ccc(OC)cc2)cc1 | > 100 | > 100 | > 100 | – | – | – | – | – | – | – | – | – | – | – | – | – | – | – | –
2 | Cc1c2cccc-2c(OCCO)cc2c3ccccc3n(C)c12 | 18.3 | – | 14.4 | 16.1 | 13.4 | > 100 | 10 | 25.2 | 7.15 | 20.6 | – | – | – | – | – | – | – | – | –
3 | CC(C)C(C/C=C1\CC(CO)(COC(=O)C(C)(C)C)OC1=O)C(C)C (stereo not given) | 49.6 | – | 19.8 | 17.6 | 24.5 | 34.9 | 21.7 | 25.3 | 11.8 | 19.6 | – | – | – | – | – | – | – | – | –
4 | COc1ccc2c(c1)CCCN2CCCCCCCCCCN(CCC(C)C)CCC(C)C | 18 | 22.6 | – | – | – | – | – | – | – | – | 20.9 | – | – | – | – | – | – | – | –
5 | COc1ccc(C2=C3SC=c4ccccc4=C3ON=C2c2ccccc2)cc1 | > 100 | – | > 100 | – | > 100 | > 100 | > 100 | > 100 | > 100 | > 100 | – | – | – | – | – | – | – | – | –
6 | N=C1C(=N)c2ccccc2-c2ccccc21.N=C1C(=N)c2ccccc2-c2ccccc21.N=C1C(=N)c2ccccc2-c2ccccc21.[Cl-].[Ru+2] | > 31.6 | – | 2.94 | – | – | – | – | – | – | – | – | – | – | – | – | – | – | – | –
7 | NCCCn1c2c(c3ccc([N+](=O)[O-])cc3c1=O)C(=O)c1ccccc1-2 | 1.14 | – | 0.16 | – | 0.881 | – | 0.472 | 2.08 | 2.29 | 0.474 | – | 0.235 | 0.0785 | 0.0297 | 0.136 | 0.322 | 0.657 | 0.0455 | –
8 | Cc1cc(/N=C/c2ccc(F)cc2)n(-c2ccccc2)n1 | > 100 | – | > 100 | > 100 | > 100 | > 100 | > 100 | > 100 | > 100 | > 100 | – | – | – | – | – | – | – | – | –
9 | CC(=O)NNc1nc(-c2ccc([N+](=O)[O-])cc2)c(C#N)c(=O)n1C | > 100 | – | > 100 | > 100 | 23 | > 100 | 34.2 | > 100 | 99.5 | > 100 | – | – | – | – | – | – | – | – | –
10 | CC(=O)O[C@H]1CC[C@@]2(C)C(=CC[C@H]3[C@@H]4C/C(=C\c5ccc(N(C)C)cc5)[C@H](OC(C)=O)[C@@]4(C)CC[C@@H]32)C1 | 34.2 | – | 37.9 | 36 | 33.4 | 76.8 | 29.4 | – | 9.36 | > 100 | – | – | – | – | – | – | – | – | –
11 | CSc1ccsc1-c1sc(-c2cc(SC)c(-c3sc(-c4cc(SC)c(-c5sccc5SC)s4)cc3SC)s2)cc1SC | > 100 | – | > 100 | – | > 100 | 82.8 | > 100 | 56.5 | > 100 | > 100 | – | – | – | – | – | – | – | – | –
12 | CCSC1=N/C(=C\c2ccc(N(C)C)cc2)C(Cl)=N1 | > 100 | – | > 100 | > 100 | > 100 | > 100 | > 100 | > 100 | > 100 | > 100 | – | – | – | – | – | – | – | – | –
13 | NCCc1cc(O)c(O)cc1O | 67.6 | – | 39.4 | 47 | 70.6 | 73.2 | 44.6 | 32.7 | > 100 | 32.4 | – | – | – | – | – | – | 34.4 | – | –
14 | CN(C)CCCn1cnc2cc(Cl)c(Cl)cc21 | > 100 | – | > 100 | > 100 | > 100 | > 100 | > 100 | > 100 | > 100 | > 100 | – | – | – | – | – | – | – | – | –
15 | CCc1nc(N)nc(N)c1-c1ccc([N+](C)(C)C)cc1 | > 100 | – | > 100 | > 100 | > 100 | > 100 | > 100 | > 100 | > 100 | > 100 | – | – | – | – | – | – | – | – | –
16 | O=P1(c2ccccc2)Nc2ccccc2SSc2ccccc2N1 | 37.1 | 31.8 | 32.8 | – | – | – | – | – | – | – | 32.7 | – | – | – | – | – | – | – | –
17 | O=C1NI(C#Cc2ccccc2)c2ccccc21 | > 100 | – | > 100 | > 100 | > 100 | > 100 | > 100 | > 100 | > 100 | > 100 | – | – | – | – | – | – | – | – | –

Row | SMILES | TGI (HT29 colon) [µM] | TGI (DLD-1 colon) [µM] | TGI (SN12C renal) [µM] | TGI (MDA-N) [µM] | TGI (BT-549 breast) [µM] | TGI (T-47D breast) [µM] | TGI (MDA-MB-231 breast) [µM] | TGI (MDA-MB-435) [µM] | TGI (HS 578T breast) [µM] | TGI (DU-145 prostate) [µM] | TGI (XF 498 CNS) [µM] | GI50 (BT-549 breast) [µM] | GI50 (HT29 colon) [µM] | GI50 (SN12C renal) [µM] | GI50 (MDA-MB-231 breast) [µM] | GI50 (MDA-MB-435) [µM] | GI50 (HS 578T breast) [µM] | GI50 (DU-145 prostate) [µM] | GI50 (T-47D breast) [µM]
18 | COc1cc(C2CC(c3cccc(Nc4ccncc4)c3)=NN2c2ccc(Cl)cc2)cc(OC)c1OC (stereo not given) | 4.82 | – | 2.95 | – | – | 4.23 | – | 3.08 | – | 3.17 | – | – | 1.87 | 1.54 | – | 1.62 | – | 1.78 | 1.79
19 | COc1ccc2c(C(=O)c3cn(CCN4CCOCC4)c4ccccc34)cccc2c1 | > 100 | – | > 100 | > 100 | > 100 | > 100 | > 100 | > 100 | > 100 | > 100 | – | – | – | – | – | – | – | – | –
20 | COC(C)(C)OCCN1CCN(CCN2C3=C(C=C(C(C)=O)C3)Sc3ccccc32)CC1 | 33.2 | – | 69.8 | 36.5 | 44.1 | > 100 | 52.4 | 30.9 | 36.5 | 68.8 | – | – | – | – | – | – | – | – | –
21 | CC1(C)OC2C(O)C(CO)OC2(C(F)F)O1 (stereo not given) | > 100 | – | > 100 | > 100 | > 100 | > 100 | > 100 | > 100 | > 100 | > 100 | – | – | – | – | – | – | – | – | –
22 | CCCOC(=O)CNC(=O)OC(C)(C)C | > 100 | > 100 | – | – | – | – | – | – | – | – | > 100 | – | – | – | – | – | – | – | –
23 | Cc1cccc2c1Sc1ccccc1C2NC(=O)CCN(C)C (stereo not given) | > 100 | > 100 | > 100 | – | – | – | – | – | – | – | – | – | – | – | – | – | – | – | –
24 | C=CCN(C(=O)CNC(=O)C(F)(F)F)c1cc(OCc2ccccc2)c2c(c1)c(C)cn2S(=O)(=O)c1ccccc1 | > 100 | – | > 100 | – | > 100 | > 100 | > 100 | > 100 | > 100 | > 100 | – | – | – | – | – | – | – | – | –
25 | COc1ccc(-c2nc3ncccn3c2-c2ccc(SC)cc2)cc1 | 28.1 | – | > 100 | – | 46.5 | – | > 100 | 0.499 | 7.7 | – | – | – | – | – | – | – | – | – | –
26 | CCOC(=O)c1c2c(n(Cc3ccccc3)c1C)C(=O)C(=O)c1ccccc1-2 | – | – | 0.333 | – | – | 2.19 | 1.99 | 0.112 | 2.19 | 0.972 | – | – | – | – | – | – | – | – | –
27 | Nc1n[nH]c(=O)c2c1c(I)cn2C1OC(CO)C(O)C1O (stereo not given) | 67.8 | > 100 | 66.1 | – | – | – | – | – | – | – | 8.3 | – | – | – | – | – | – | – | –
28 | CN(C)CCNC(=O)c1cccc2ccc(-c3ccc(F)cc3)nc12 | 17 | 17.9 | 25.2 | – | – | – | – | – | – | – | 10.2 | – | – | – | – | – | – | – | –
29 | O=C(Nc1ccc([N+](=O)[O-])cc1[N+](=O)[O-])C(=O)C(C(=O)c1ccc2ccccc2c1)C1OC(=O)c2ccccc21 (stereo not given) | 36.4 | 81.4 | 54.7 | – | – | – | – | – | – | – | – | – | – | – | – | – | – | – | –
30 | Oc1cn(-c2ccc(Cl)cc2)nc1-c1n[nH]c(=S)n1-c1ccccc1 | 44 | – | > 100 | – | – | > 100 | > 100 | 5.09 | 55.1 | > 100 | – | – | – | – | – | – | – | – | –
31 | COc1cc(/C=C/C(=O)Oc2ccc(NC(C)=O)cc2)ccc1C(=O)O/C=C/c1ccccc1 | > 100 | > 100 | > 100 | – | – | – | – | – | – | – | > 100 | – | – | – | – | – | – | – | –
32 | Nc1ccccc1N=Cc1cc2cc([N+](=O)[O-])ccc2s1 | > 100 | – | > 100 | > 100 | 52.9 | 20.8 | 39.2 | > 100 | 41.8 | 36.1 | – | – | – | – | – | – | – | – | –
33 | Cc1cc2c(cc1C(=O)c1ccc(N)cc1)OCO2 | 61.3 | – | > 100 | 35.1 | > 100 | > 100 | > 100 | 23.4 | > 100 | > 100 | – | – | – | – | – | – | – | – | –
